Source: ChEMBL document CHEMBL5308504, “Tm Shift (DSF) assay results for EUbOPEN Chemogenomics Library” (2023)

Columns and labels:
Peregrin (Homo sapiens) = biological target: T1, Peregrin (Homo sapiens) (UniProt P55201); details: Compound concentration 20.0 uM, Protein concentration 2.0 uM, Result type QC Liability
T1 sequence (whole entry): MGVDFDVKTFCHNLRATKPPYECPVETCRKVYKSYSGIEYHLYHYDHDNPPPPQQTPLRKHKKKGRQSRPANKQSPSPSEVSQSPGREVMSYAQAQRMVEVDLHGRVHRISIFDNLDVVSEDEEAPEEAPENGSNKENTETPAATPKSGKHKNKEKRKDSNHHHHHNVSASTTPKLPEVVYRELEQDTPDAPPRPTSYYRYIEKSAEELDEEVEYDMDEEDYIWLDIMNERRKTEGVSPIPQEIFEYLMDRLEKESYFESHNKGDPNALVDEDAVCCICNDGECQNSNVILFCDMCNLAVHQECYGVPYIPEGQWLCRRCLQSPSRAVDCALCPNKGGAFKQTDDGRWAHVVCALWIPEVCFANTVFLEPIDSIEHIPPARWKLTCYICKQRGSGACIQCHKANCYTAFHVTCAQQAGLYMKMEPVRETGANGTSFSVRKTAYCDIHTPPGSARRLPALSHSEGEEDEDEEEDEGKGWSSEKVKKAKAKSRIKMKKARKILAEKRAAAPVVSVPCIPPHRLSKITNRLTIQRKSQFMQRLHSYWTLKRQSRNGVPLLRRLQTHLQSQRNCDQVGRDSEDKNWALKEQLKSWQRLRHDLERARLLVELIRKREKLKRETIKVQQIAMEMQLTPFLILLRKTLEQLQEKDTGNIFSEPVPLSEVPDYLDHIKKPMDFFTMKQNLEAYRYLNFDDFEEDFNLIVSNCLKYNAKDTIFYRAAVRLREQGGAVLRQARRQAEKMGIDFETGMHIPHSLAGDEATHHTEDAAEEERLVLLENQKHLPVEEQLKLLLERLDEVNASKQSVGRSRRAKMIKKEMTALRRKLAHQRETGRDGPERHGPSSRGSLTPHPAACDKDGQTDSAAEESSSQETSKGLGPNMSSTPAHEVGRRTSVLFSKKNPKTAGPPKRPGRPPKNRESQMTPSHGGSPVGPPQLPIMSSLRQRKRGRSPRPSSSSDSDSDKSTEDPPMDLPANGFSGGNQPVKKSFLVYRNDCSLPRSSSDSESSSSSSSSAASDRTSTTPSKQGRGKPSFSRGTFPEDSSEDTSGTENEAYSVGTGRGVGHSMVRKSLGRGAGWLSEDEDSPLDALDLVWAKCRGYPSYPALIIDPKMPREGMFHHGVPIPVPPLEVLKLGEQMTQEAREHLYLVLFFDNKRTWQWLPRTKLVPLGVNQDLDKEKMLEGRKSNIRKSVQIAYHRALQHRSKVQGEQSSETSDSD

[1] = biological target: Fibroblast growth factor receptor 3 (Homo sapiens) (UniProt P22607); details: Compound concentration 20.0 uM, Protein concentration 2.0 uM, Result type QC Liability
Chain of Fibroblast growth factor receptor 3 (Homo sapiens) (P22607 23-806 limits assumed): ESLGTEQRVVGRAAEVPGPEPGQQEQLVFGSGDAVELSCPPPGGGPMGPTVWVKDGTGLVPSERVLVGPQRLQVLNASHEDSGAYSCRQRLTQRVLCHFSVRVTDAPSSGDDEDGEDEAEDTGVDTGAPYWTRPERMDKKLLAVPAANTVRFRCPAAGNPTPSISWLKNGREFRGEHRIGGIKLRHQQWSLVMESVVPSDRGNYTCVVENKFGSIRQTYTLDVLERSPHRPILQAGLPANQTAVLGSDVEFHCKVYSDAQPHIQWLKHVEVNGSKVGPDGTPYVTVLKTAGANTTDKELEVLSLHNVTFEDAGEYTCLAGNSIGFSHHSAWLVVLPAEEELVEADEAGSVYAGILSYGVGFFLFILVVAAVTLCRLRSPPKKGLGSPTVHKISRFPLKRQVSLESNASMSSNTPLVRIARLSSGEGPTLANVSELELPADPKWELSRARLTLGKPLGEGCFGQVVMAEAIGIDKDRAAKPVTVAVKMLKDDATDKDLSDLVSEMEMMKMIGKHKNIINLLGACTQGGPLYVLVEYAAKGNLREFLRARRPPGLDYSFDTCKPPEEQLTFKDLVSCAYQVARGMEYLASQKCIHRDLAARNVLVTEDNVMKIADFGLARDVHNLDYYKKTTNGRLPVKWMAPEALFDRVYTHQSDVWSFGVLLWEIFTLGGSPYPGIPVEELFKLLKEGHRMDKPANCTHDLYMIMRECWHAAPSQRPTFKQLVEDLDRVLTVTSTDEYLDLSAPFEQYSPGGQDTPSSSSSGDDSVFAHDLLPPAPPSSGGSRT
Description: Thermal Shift Assay. Domain: start/stop: P449-E759

Row | SMILES | ΔTm (Peregrin (Homo sapiens)) | ΔTm [1]
1 | CCC(C(=O)Nc1ccc(-c2cc3ccccc3s2)c(C(N)=O)c1)c1nccs1 (configuration not stated) | -1.09 °C | 0.48 °C
2 | CN(C)CCC[C@@]1(c2ccc(F)cc2)OCc2cc(C#N)ccc21 | -3.08 °C | 0.45 °C
3 | C=CC(=O)Nc1cc(-c2nn(C3CCC(N4CCN(C(C)=O)CC4)CC3)c3ncnc(N)c23)ccc1Oc1ccccc1 (configuration not stated) | -1.27 °C | 1.74 °C
4 | COc1cc(C(=O)NC2CCN(C)CC2)ccc1Nc1ncc2c(n1)N(C1CCCC1)CC(F)(F)C(=O)N2C | 1.14 °C | 0.42 °C
5 | COCCc1ccc(-c2c(C)nc3c(N4CCOCC4)ccnn23)cn1 | -2.19 °C | 1.27 °C
6 | Cc1cc(S(=O)(=O)N2CC(C)(C)c3cc(-c4ccc(C(F)(F)F)cc4)ccc32)ccc1OCC(=O)O | -7.85 °C | 0.47 °C
7 | CN(CC(=O)Nc1ccc(F)c(F)c1F)C(=O)c1ccc2c(c1)OCCO2 | -0.72 °C | 0.6 °C
8 | O=C(Cc1ccccc1)Nc1nnc(N2C[C@H]3C[C@@H]2CN3c2cccnn2)s1 | -0.88 °C | 0.46 °C
9 | O=C(Nc1ccccc1C(=O)O)c1cc(S(=O)(=O)c2ccccc2)ccc1Cl | -3.6 °C | 0.83 °C
10 | N=C(N)NCCC[C@H](NC(=O)CC1(CC(=O)N2CCN(C(c3ccccc3)c3ccccc3)CC2)CCCC1)C(=O)NCc1ccccc1 | -4.91 °C | 0.22 °C
11 | Cn1c(C2(NC(=O)c3ccc(NCC4CCCCC4)nc3)CCC2)nc2ccc(/C=C/C(=O)O)cc21 | -2.12 °C | 1.03 °C
12 | CCC(=O)O[C@@H](OP(=O)(CCCCc1ccccc1)CC(=O)N1C[C@H](C2CCCCC2)C[C@H]1C(=O)O)C(C)C (some centres not stated) | -1.88 °C | 0.42 °C
13 | CC[C@H](CO)Nc1nc(Nc2cccc(-c3ccccn3)c2)c2ncn(C(C)C)c2n1 | -2.18 °C | 2.78 °C
14 | COc1cc(N2CCN(C)CC2)ccc1Nc1ncc2c(n1)N(C)c1ccccc1C(=O)N2CC(F)(F)F | -2.22 °C | 0.22 °C
15 | CC#CCC(C)[C@H](O)/C=C/[C@@H]1[C@H]2C/C(=C/CCCC(=O)O)C[C@H]2C[C@H]1O (some centres not stated) | -2.03 °C | 0.4 °C
16 | Fc1ccc(Cl)cc1-c1nc(Nc2ccncc2)c2nccnc2n1 | -0.76 °C | 0.54 °C
17 | COc1cc(-c2cc([C@H](O)C3CC3)n3ncnc(N)c23)ccc1CO | -2.32 °C | 1.71 °C
18 | CC(C)S(=O)(=O)c1ccccc1Nc1nc(N[C@@H]2CCCN(CCCCCCCNC(=O)COc3cccc4c3C(=O)N(C3CCC(=O)N(C)C3=O)C4=O)C2)ncc1Cl (some centres not stated) | -2.55 °C | 8.15 °C
19 | Cc1cc(-c2ccnc(Nc3cnn(C)c3)n2)ccc1CNC(=O)N1CC(OC(C)C)C1 | -1.39 °C | 2.34 °C
20 | O=C1CN(c2ccccc2F)C(NCCN2CCOCC2)=C1c1nc2cc(Br)ccc2c(=O)[nH]1 | -2.29 °C | 0.53 °C
21 | Cn1cc(-c2ccc(N(C(=O)NCc3ccccc3)[C@H]3CC[C@H](Nc4ccc(C#N)cn4)CC3)cc2)ccc1=O | -0.32 °C | 1.75 °C
22 | CCN(C(=O)c1cc(F)ccc1Oc1cncnc1N1CC2(CCN(C[C@H]3CC[C@H](NS(=O)(=O)CC)CC3)CC2)C1)C(C)C | -0.92 °C | 0.56 °C
23 | CO[C@H]1CC[C@H](N(c2cc(F)c(Oc3ncc(Cn4nccn4)cc3C(F)(F)F)cc2C(=O)O)C(=O)[C@H]2CC[C@H](C)CC2)CC1 | -4.09 °C | 0.62 °C
24 | O=C(Nc1cccc(C(F)(F)F)c1)c1cccc(-n2cc(-c3ccco3)nn2)c1 | -8.11 °C | -0.75 °C
25 | O=C(O)CCCCN(CCc1ccccc1OCc1ccc(CCc2ccccc2)cc1)Cc1ccc(C(=O)O)cc1 | -2.23 °C | 0.8 °C
26 | CCCCCCC(Sc1nc(Cl)cc(NCc2ccc(-c3ccccc3)cc2)n1)C(=O)O (configuration not stated) | -6.38 °C | 0.79 °C
27 | CC(C)(c1ccc(OCc2cccc(COc3ccc(C(=N)N)cc3)c2)cc1)c1ccc(O[C@@H]2O[C@H](C(=O)O)[C@@H](O)[C@H](O)[C@H]2O)cc1 | -6.79 °C | -5.02 °C
28 | CC(C)N1CCN(Cc2cnc(-c3cc(-c4cccc5[nH]ccc45)cc4[nH]ncc34)o2)CC1 | 0.22 °C | 1.84 °C
29 | C/C=C1\C(=O)CC2C3CCC4=CC(=O)CC[C@]4(C)C3CC[C@]12C (some centres not stated) | -1.36 °C | 
